Test results reported in patent US4568685A, “N-[(1H-1,2,4-Triazol-1-yl)alkyl]-arylamides” (American Cyanamid Company, priority 1984, dated 1986).
Counter-ions that a name gives are not always drawn.

System: spontaneously hypertensive rats
Experiment: Hypotensive activity in spontaneously hypertensive rats (mean arterial blood pressure)
Assay type: in vivo, spontaneously hypertensive rats of the Okamoto strain
Conditions: gavage, about 100 mg/kg or less, two doses 24 hours apart, measured at about 28 hours; average MABP of the SHR 170 ±1.5 mm Hg; number of rats in parentheses
Protocol: Hypotensive Activity in Spontaneously Hypertensive Rats
The novel compounds of the present invention are active hypotensive agents and were tested for hypotensive activity by the method of P. S. Chan and D. Poorvin, Clinical and Experimental Hypertension, 1 (6), 817-830 (1979). Male, 16 week old, spontaneously hypertensive rats of the Okamoto strain, from Taconic Farms, Germantown, N.Y., having an average mean arterial blood pressure of 170 ±1.5 mm of mercury are used in the test. One to 3 rats are used per test compound. A rat is dosed by gavage with a test compound, suspended in approximately 2% pre-boiled starch at a concentration of about 50 mg/ml, at a dose of about 100 mg/kg of body weight or less, with approximately 0.9% sodium chloride loading at a dose of about 25 ml/kg of body weight. A second identical dose of the test compound, without sodium chloride loading, is given about 24 hours later. At about 28 hours after the initial dose the mean arterial blood pressure is measured by the method of Chan and Poorvin vide supra. The procedure is repeated in a second and third rat when necessary.

SMILES | MABP (mean arterial blood pressure) [mm Hg]
O=C1c2ccccc2C(=O)N1CCCCn1cncn1 [2-[4-(1H-1,2,4-triazol-1-yl)butyl]-1H-isoindol-1,3(2H)-dione] | 119
O=C(NCCCCn1cncn1)c1ccc(Cl)c(Cl)c1 [Example 5, 3,4-Dichloro-N-[4-(1H-1,2,4-triazol-1-yl)butyl]benzamide] | 141
O=C(NCCCCn1cncn1)c1ccccc1-c1ccccc1 [Example 6, N--[4-(1H--1,2,4-triazol-1-yl)butyl] [1,1'-biphenyl]-2-carboxamide, fumarate] | 145
O=C(NCCCCn1cncn1)c1ccc(Br)cc1 [Example 8, 4-bromo-N--[4-(1H--1,2,4-triazol-1-yl)butyl]benzamide] | 137
O=C(NCCCn1cncn1)c1ccc(Cl)c(Cl)c1 [Example 12, 3,4-Dichloro-N-[3-(1H-1,2,4-triazol-1-yl)propyl]benzamide] | 150
CC(C)(C)c1ccc(C(=O)NCCCn2cncn2)cc1 [Example 13, 4-(1,1-dimethylethyl)-N--[3-(1H--1,2,4-triazol-1-yl)propyl]benzamide] | 123
N#Cc1ccc(C(=O)NCCCn2cncn2)cc1 [Example 19, 4-cyano-N--[3-(1H--1,2,4-triazol-1-yl)propyl]benzamide] | 119
Cc1ccc(C(=O)NCCCn2cncn2)cc1 [Example 21, 4-methyl-N--[3-(1H--1,2,4-triazol-1-yl)propyl]benzamide] | 145
O=C(NCCCn1cncn1)c1ccc(Br)cc1 [Example 23, 4-bromo-N--[3-(1H--1,2,4-triazol-1-yl)propyl]benzamide] | 147
O=C(NCCCn1cncn1)c1ccccc1 [Example 24, N--[3-(1H--1,2,4-triazol-1-yl)propyl]benzamide] | 124
O=C(NCCCn1cncn1)c1ccc(I)cc1 [Example 27, 4-Iodo-N-[3-(1H-1,2,4-triazol-1-yl)propyl]benzamide] | 128
O=C(C=Cc1ccc(Cl)cc1)NCCCn1cncn1 [Example 29, 3-(4-chlorophenyl)-N--[3-(1H--1,2,4-triazol-1-yl)propyl]-2-propenamide] | 137
CS(=O)(=O)c1ccc(C(=O)NCCCn2cncn2)cc1 [Example 32, 4-(methylsulfonyl)-N--[3-(1H--1,2,4-triazol-1-yl)propyl]benzamide] | 110
CN(C)c1ccc(C(=O)NCCCn2cncn2)cc1 [Example 37, 4-(dimethylamino)-N--[3-(1H--1,2,4-triazol-1-yl)propyl]benzamide] | 117
O=C(Cc1cccc2ccccc12)NCCCCn1cncn1 [N--[4-(1H--1,2,4-triazol-1-yl)butyl]-1-naphthalene acetamide, fumarate] | 134
